Among the data in BindingDB's records for doi:10.1016/j.ejmech.2019.112028 (Hunan Agricultural University, 2020) are IC50 values, retold here.

Data set [1] is described as follows: Potentiation of amphotericin-induced cytotoxicity against human DU-145 cells over expressing CYP1B1 assessed as reversal of CYP1B1 mediated drug resistance at 5 uM after 48 hrs by MTT assay (Rvb = 43.25 +/- 1.7 nM). (Tetrazolium assays rely on reduction of a dye to a coloured formazan, in cell work by metabolically active cells.)
The nature of data set [2]: Potentiation of amphotericin-induced cytotoxicity against human DU-145 cells over expressing CYP1B1 assessed as reversal of CYP1B1 mediated drug resistance at 1 uM after 48 hrs by MTT assay (Rvb = 43.25 +/- 1.7 nM).

For the compound `COc1ccc(OC)c2c1c(OC)cc1c(=O)cc(-c3ccc(-c4cn(CCOc5cccc6c5C(=O)N(C5CCC(=O)NC5=O)C6=O)nn4)cc3)oc12` (centres undefined), the IC50 (usually the point on the concentration scale where inhibition reaches its midpoint) in data set [1] was 0.024 µM.
Turning to `COc1ccc(OC)c2c1c(OC)cc1c(=O)cc(-c3ccc(-c4cn(CCCCCOc5cccc6c5C(=O)N(C5CCC(=O)NC5=O)C6=O)nn4)cc3)oc12` (centres undefined), in data set [2], the IC50 turned out to be 0.028 µM.
In the case of `COc1ccc(OC)c2c1c(OC)cc1c(=O)cc(-c3ccc(-c4cn(CCCCCCOc5cccc6c5C(=O)N(C5CCC(=O)NC5=O)C6=O)nn4)cc3)oc12` (centres undefined), the IC50 in data set [1] came to 0.007 µM.
Same read-out and setting: under `COc1ccc(OC)c2c1c(OC)cc1c(=O)cc(-c3ccc(-c4cn(CCCCCCCCOc5cccc6c5C(=O)N(C5CCC(=O)NC5=O)C6=O)nn4)cc3)oc12` (centres undefined) stands 0.037 µM.
